Several values for one entry are separate records, joined by “and”; a condition that tells them apart may be missing. Equal entries are not always repeated.

Holding throughout (experiment): Postemergence foliar-applied mixtures, direct seeded rice, greenhouse
Experiment [1] deals with ECHCO (Echinochloa colona, junglerice). It counts as in vivo, Echinochloa colona (L.) Link. An excerpt:
(§1) Seeds or nutlets of the desired test plant species were planted in a soil matrix prepared by mixing a loam or sandy loam soil (e.g., 28.6 percent silt, 18.8 percent clay, and 52.6 percent sand, with a pH of about 5.8 and an organic matter content of about 1.8 percent) and calcareous grit in an 80 to 20 ratio. The soil matrix was contained in plastic pots with a volume of 1 quart and a surface area of 83.6 square centimeters (cm^2). When required to ensure good germination and healthy plants, a fungicide treatment and/or other chemical or physical treatment was applied. The plants were grown for 8-22 days in a greenhouse with an approximate 14 h photoperiod which was maintained at about 29° C. during the day and 26° C. during the night. Nutrients (Peters Excel® 15-5-15 5-Ca 2-Mg and iron chelate) were applied in the irrigation solution as needed and water was added on a regular basis. Supplemental lighting was provided with overhead metal halide 1000-Watt lamps as necessary. The plants were employed for testing when they reached the first through fourth true leaf stage.
(§2) Treatments consisted of the acid or esters of 4-amino-3-chloro-5-fluoro-6-(4-chloro-2-fluoro-3-methoxy-phenyl) pyridine-2-carboxylic acid (Compound A), each formulated as an SC (suspension concentrate), and various herbicidal components alone and in combination. Forms of compound A were applied on an acid equivalent basis.
(§3) Other herbicidal components were applied on an active ingredient basis and included Photosystem II (PSII)-inhibiting herbicides propanil formulated as Stam® M4 EC, bentazon-sodium formulated as Basagran®, atrazine formulated as Atrazine 90 WDG, bromoxynil octanoate ester formulated as Buctril®, simetryne (technical grade material), simazine formulated as Princep® Caliber 90, ioxynil (technical grade material), cyanazine (technical grade material), and hexazinone (technical grade material).
(§4) Treatment requirements were calculated based upon the rates being tested, the concentration of active ingredient or acid equivalent in the formulation, and a 12 mL application volume at a rate of 187 L/ha.
(§5) For treatments comprised of formulated compounds, measured amounts of compounds were placed individually in 25 mL glass vials and diluted in a volume of 1.25% (v/v) Agri-Dex® crop oil concentrated to obtain 12× stock solutions. […] Application solutions were prepared by adding an appropriate amount of each stock solution (e.g., 1 mL) and diluted to the appropriate final concentrations with the addition of 10 mL of an aqueous mixture of 1.25% (v/v) crop oil concentrate so that the final spray solutions contained 1.25+/−0.05% (v/v) crop oil concentrate.
(§6) For treatments comprised of technical compounds, weighed amounts can be placed individually in 25 mL glass vials and dissolved in a volume of 97:3 v/v acetone/DMSO to obtain 12× stock solutions. […] Application solutions can be prepared by adding an appropriate amount of each stock solution (e.g., 1 mL) and diluted to the appropriate final concentrations with the addition of 10 mL of an aqueous mixture of 1.5% (v/v) crop oil concentrate so that the final spray solutions contain 1.25% (v/v) crop oil concentrate. When technical materials are used, the concentrated stock solutions can be added to the spray solutions so that the final acetone and DMSO concentrations of the application solutions are 16.2% and 0.5%, respectively.
(§7) For treatments comprised of formulated and technical compounds, weighed amounts of the technical materials were placed individually in 25 mL glass vials and dissolved in a volume of 97:3 v/v acetone/DMSO to obtain 12× stock solutions, and measured amounts of the formulated compounds were placed individually in 25 mL glass vials and diluted in a volume of 1.5% (v/v) crop oil concentrate or water to obtain 12× stock solutions. […]

In experiment [2] the test system is CYPIR (Cyperus iria, rice flatsedge). It counts as in vivo, Cyperus iria L.
Source text: as §1, §2, §3, §4, §5, §6, §7

For experiment [3], the system named is COMBE (Commelina benghalensis, Benghal dayflower). It is filed as in vivo, Commelina benghalensis L. The following applies: 20 DAA.
Source text: as §1, with “stage. […]” for “stage.”
as §4
For treatments comprised of formulated compounds, measured amounts of compounds were placed individually in 25 mL glass vials and diluted in a volume of 1.25% (v/v) Agri-Dex® crop oil concentrated to obtain 12× stock solutions. […]
as §7

Consider `CCNc1nc(Cl)nc(NC(C)C)n1` [Atrazine, 6-chloro-N-ethyl-N′-(1-methylethyl)-1,3,5-triazine-2,4-diamine, reference compound], for which the “Visual Weed Control (%) Obs” value in experiment [1] (280 g ai/ha, 22 DAA) was 10%; in experiment [1] (560 g ai/ha, 22 DAA) it was 10%; in experiment [1] (1120 g ai/ha, 22 DAA), 60%; in experiment [2] (280 g ai/ha, 22 DAA), 0%; in experiment [2] (560 g ai/ha, 22 DAA), 100%; in experiment [2] (1120 g ai/ha, 22 DAA), 80%.
For `COc1c(Cl)ccc(-c2nc(C(=O)O)c(Cl)c(N)c2F)c1F` [Compound A Acid, 4-amino-3-chloro-6-(4-chloro-2-fluoro-3-methoxyphenyl)-5-fluoropyridine-2-carboxylic acid], the “Visual Weed Control (%) Obs” value in experiment [1] (4.38 g ae/ha, 21 DAA) was found to be 43%; in experiment [1] (4.38 g ae/ha, 22 DAA) it was 20%; in experiment [1] (8.75 g ae/ha, 21 DAA) it was 63%; in experiment [2] (4.38 g ae/ha, 22 DAA), 15%.
On to `COc1c(Cl)ccc(-c2nc(C(=O)OCc3ccccc3)c(Cl)c(N)c2F)c1F` [Compound A Benzyl Ester, benzyl ester of 4-amino-3-chloro-5-fluoro-6-(4-chloro-2-fluoro-3-methoxy-phenyl)pyridine-2-carboxylic acid], for which the “Visual Weed Control (%) Obs” value in experiment [1] (4.38 g ae/ha, 21 DAA) was 60%; in experiment [1] (8 g ae/ha, 20 DAA), 65%; in experiment [1] (8 g ae/ha, 21 DAA) it was 75% and 50%; in experiment [1] (8.75 g ae/ha, 21 DAA) it was 68%; in experiment [1] (16 g ae/ha, 20 DAA), 85%; in experiment [1] (16 g ae/ha, 21 DAA), 85% and 65%. Also, the “Visual Weed Control (%) Obs” value in experiment [1] (17.5 g ae/ha, 21 DAA) is 83%; in experiment [1] (32 g ae/ha, 20 DAA) it was 95%; in experiment [1] (32 g ae/ha, 21 DAA), 95% and 85%; in experiment [2] (8 g ae/ha, 20 DAA), 70%; in experiment [2] (8 g ae/ha, 22 DAA), 10%; in experiment [2] (16 g ae/ha, 20 DAA), 90%. Moreover, the “Visual Weed Control (%) Obs” value in experiment [2] (16 g ae/ha, 22 DAA) was 60%; in experiment [2] (32 g ae/ha, 20 DAA), 90%; in experiment [3] (6 g ae/ha), 80% and 70%.
With `CCC(=O)Nc1ccc(Cl)c(Cl)c1` [Propanil, N-(3,4-dichlorophenyl)propanamide, reference compound], the “Visual Weed Control (%) Obs” value in experiment [1] (420 g ai/ha, 21 DAA) is on record as 10%; in experiment [1] (840 g ai/ha, 21 DAA) it was 25%; in experiment [1] (1680 g ai/ha, 21 DAA), 25%; in experiment [3] (3360 g ai/ha) it was 10%.
Regarding `CCNc1nc(Cl)nc(NCC)n1` [Simazine, 6-chloro-N,N′-diethyl-1,3,5-triazine-2,4-diamine, reference compound], the “Visual Weed Control (%) Obs” value amounted to 0% in experiment [1] (560 g ai/ha, 20 DAA); 0% in experiment [1] (1120 g ai/ha, 20 DAA); 0% in experiment [1] (2240 g ai/ha, 20 DAA); 0% in experiment [2] (560 g ai/ha, 20 DAA); 0% in experiment [2] (1120 g ai/ha, 20 DAA); 30% in experiment [2] (2240 g ai/ha, 20 DAA).

The values above are taken from patent US8912121B2, “Herbicidal compositions comprising 4-amino-3-chloro-5-fluoro-6-(4-chloro-2-fluoro-3-methoxyphenyl)pyridine-2-carboxylic acid or a derivative thereof and certain PS II inhibitors” (Dow Agrosciences LLC, priority 2012, dated 2014).
